Source: patent US8110681B2, “Compounds for the treatment of spinal muscular atrophy and other uses” (The United States of America as represented by the …, priority 2006, dated 2012)
Where two headings read alike, the source gives them in different places.

System: SMN2-linked luciferase-reporter gene construct
Assay: SMN splice reporter assay (SMN2-linked luciferase reporter, Example 10)
Format: cell-based
Conditions: for maximal fold induction: read-out: SMN Splice Reporter Assay (Example 10) Avg MaxFold Increase
In short: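 Values are fold-increase in luciferase signal relative to baseline cells without compound. The cervical carcinoma line used holds a fusion of alternatively spliced SMN2 sequence and luciferase. Readable frame, and thus signal, arises only with exon 7-including splicing.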

[1] = SMN2-linked luciferase reporter, average
[2] = maximum fold increase of reporter signal, average
[3] = SMN2-linked luciferase reporter, average maximum fold increase

SMILES: C[C@@H](C(=O)O)c1ccc(N2Cc3ccccc3C2=O)cc1 [ALB-112941]
- EC50 [1]: 280 nM
- maximal fold induction [2]: 1.48

SMILES: C/C=C(\C)c1ccc2c(c1)C(=O)N(c1ccc(C(C)C(=O)O)cc1)C2 (centres unmarked) [ALB-114087]
- EC50 [1]: 226 nM
- maximal fold induction [2]: 1.88

SMILES: CC(C(=O)OC(C)(C)C)c1ccc(N2Cc3c(cccc3-c3cccs3)C2=O)cc1 (centres unmarked) [ALB-112191]
- maximal fold induction [2]: 1.12

SMILES: CC(C)c1ccc(N2Cc3ccc(N4CCOCC4)cc3C2=O)cc1 [ALB-116368]
- maximal fold induction [2]: 1.08

SMILES: COc1ccc2c(c1)C(=O)N(c1ccc(C(C)CO)cc1)C2 (centres unmarked) [ALB-114606]
- EC50 [1]: 181 nM
- maximal fold induction [2]: 1.31

SMILES: CC(C(=O)O)c1ccc(N2CC3CCCCC3C2=O)cc1 (centres unmarked) [ALB-112901]
- EC50 [1]: 5820 nM
- maximal fold induction [2]: 1.49

SMILES: CC(C#N)c1ccc(N2Cc3ccccc3C2=O)cc1 (centres unmarked) [ALB-112330]
- EC50 [1]: 259 nM
- maximal fold induction [2]: 1.46

SMILES: CC(C(=O)OC(C)(C)C)c1ccc(N2Cc3ccccc3C2=O)cc1C#N (centres unmarked) [ALB-112435]
- EC50 [1]: 5980 nM
- maximal fold induction [2]: 1.2

SMILES: CCCCCc1cccc2c1C(=O)N(c1ccc(C(C)C(=O)O)cc1)C2 (centres unmarked) [ALB-113497]
- maximal fold induction [2]: 1.18

SMILES: Cc1ccc(-c2cc(C(C)C(=O)O)ccc2N2Cc3ccccc3C2=O)cc1 (centres unmarked) [ALB-112085.]
- maximal fold induction [2]: 1.08

SMILES: CC(C)c1ccc(N2Cc3cccc(N(C)C)c3C2=O)cc1 [ALB-117904]
- EC50 [1]: 4370 nM
- maximal fold induction [2]: 1.46

SMILES: O=C1c2cc(Br)ccc2CN1c1ccc(C2CC2)cc1 [ALB-115718]
- EC50 [1]: 22 nM
- maximal fold induction [2]: 1.32

SMILES: O=C1c2ccccc2CN1c1ccc(C2CCCCC2)cc1 [ALB-115423]
- EC50 [1]: 29 nM
- maximal fold induction [2]: 1.21

SMILES: CC(C)c1ccc(N2Cc3cccc(O)c3C2=O)cc1 [ALB-118158]
- EC50 [1]: 733 nM
- maximal fold induction [3]: 1.54

SMILES: COc1cccc2c1C(=O)N(c1ccc(C(C)C(=O)OC(C)(C)C)cc1)C2 (centres unmarked) [ALB-111955]
- EC50 [1]: 396 nM
- maximal fold induction [2]: 1.08

SMILES: CC(C(=O)OC(C)(C)C)c1ccc(N2Cc3c(N)cccc3C2=O)cc1 (centres unmarked) [ALB-111952]
- maximal fold induction [2]: 1.04

SMILES: O=C1c2ccccc2CN1c1ccc(C2CC2)cc1 [ALB-115802]
- EC50 [1]: 61 nM
- maximal fold induction [3]: 1.28

SMILES: CC(C(=O)O)c1ccc(N2Cc3cccnc3C2=O)cc1 (centres unmarked) [ALB-112229a]
- maximal fold induction [2]: 1.13

SMILES: CC(C)c1ccc(N2Cc3ccc(N4CCCCC4)cc3C2=O)cc1 [ALB-116418]
- maximal fold induction [2]: 1.15

SMILES: CC(C(=O)O)c1ccc(N2Cc3ccc(N4CCOCC4)cc3C2=O)cc1 (centres unmarked) [ALB-114738a]
- maximal fold induction [2]: 1.08

SMILES: CC(C(=O)O)c1ccc(N2Cc3cc(N)ccc3C2=O)cc1 (centres unmarked) [ALB-111950a]
- maximal fold induction [2]: 1.07

SMILES: CCCc1cc(N2Cc3ccccc3C2=O)ccc1C(C)C(=O)O (centres unmarked) [ALB-112083]
- maximal fold induction [2]: 1.09

SMILES: COc1cccc2c1C(=O)N(c1ccc(C(C)C)cc1)C2 [ALB-117748]
- EC50 [1]: 166 nM
- maximal fold induction [2]: 1.34

SMILES: CC(C)c1ccc(N2Cc3ccc(N(C)C(=O)N(C)C)cc3C2=O)cc1 [ALB-118901]
- EC50 [1]: 493 nM
- maximal fold induction [3]: 1.31

SMILES: CC(C(=O)OC(C)(C)C)c1ccc(N2Cc3ccc(-c4ccc(Cl)c(Cl)c4)cc3C2=O)cc1 (centres unmarked) [ALB-112475]
- EC50 [1]: 114 nM
- maximal fold induction [2]: 1.05

SMILES: CC(C(=O)O)c1ccc(N2Cc3ccccc3C2=O)c(-c2cccnc2)c1 (centres unmarked) [ALB-112198]
- maximal fold induction [2]: 1.12

SMILES: O=C1c2ccccc2CN1c1ccc(C2(C(=O)O)CCCC2)cc1 [ALB-112431]
- maximal fold induction [2]: 1.21

SMILES: CC(C)c1cccc2c1C(=O)N(c1ccc(C(C)C(=O)O)cc1)C2 (centres unmarked) [ALB-113565]
- maximal fold induction [2]: 1.19

SMILES: CC(C(=O)OC(C)(C)C)c1ccc(N2Cc3cc(-c4cncnc4)ccc3C2=O)cc1 (centres unmarked) [ALB-111991]
- maximal fold induction [2]: 1.09

SMILES: CC(C(=O)OC(C)(C)C)c1ccc(N2Cc3ccccc3C2=O)c(-c2ccc(Cl)c(Cl)c2)c1 (centres unmarked) [ALB-112080]
- maximal fold induction [2]: 1.03

SMILES: CCc1ccc(N2Cc3ccc(OC)cc3C2=O)cc1 [ALB-115085]
- EC50 [1]: 58 nM
- maximal fold induction [2]: 1.47

SMILES: CC(C(=O)OC(C)(C)C)c1ccc(N2Cc3c(cccc3-c3ccc(Cl)c(Cl)c3)C2=O)cc1 (centres unmarked) [ALB-112186]
- maximal fold induction [2]: 1.08

SMILES: CC(C(=O)O)c1ccc(N2Cc3ccccc3C2=O)cc1-c1cccs1 (centres unmarked) [ALB-112084]
- maximal fold induction [2]: 1.11

SMILES: C/C=C/c1ccc2c(c1)C(=O)N(c1ccc(C(C)C)cc1)C2 [ALB-115319]
- maximal fold induction [2]: 1.24

SMILES: CC(C)c1ccc(N2Cc3c(Br)cccc3C2=O)cc1 [ALB-115811]
- maximal fold induction [2]: 1.16

SMILES: COCc1ccc2c(c1)C(=O)N(c1ccc(C(C)CO)cc1)C2 (centres unmarked) [ALB-114941]
- EC50 [1]: 299 nM
- maximal fold induction [2]: 1.35

SMILES: CCCC(C)c1ccc(N2Cc3ccccc3C2=O)cc1 (centres unmarked) [ALB-117045]
- EC50 [1]: 70 nM
- maximal fold induction [2]: 1.25

SMILES: CCCCc1ccc2c(c1)C(=O)N(c1ccc(C(C)C(=O)O)cc1)C2 (centres unmarked) [ALB-115086]
- EC50 [1]: 61 nM
- maximal fold induction [2]: 2.06

SMILES: CC(C(=O)N1CCOCC1)c1ccc(N2Cc3ccccc3C2=O)cc1 (centres unmarked) [ALB-112077]
- maximal fold induction [2]: 1.09

SMILES: CCc1ccc(N2Cc3ccccc3C2=O)cc1 [ALB-114940]
- EC50 [1]: 97 nM
- maximal fold induction [2]: 1.36

SMILES: Cc1cccc2c1C(=O)N(c1ccc(C(C)C(=O)O)cc1)C2 (centres unmarked) [ALB-112557]
- EC50 [1]: 288 nM
- maximal fold induction [2]: 1.73

SMILES: COc1cccc2c1C(=O)N(c1ccc(C(C)C(=O)O)cc1)C2 (centres unmarked) [ALB-111957]
- maximal fold induction [2]: 1.23

SMILES: CC(C)(C(=O)O)c1ccc(N2Cc3ccccc3C2=O)cc1 [ALB-111796]
- EC50 [1]: 3520 nM
- maximal fold induction [2]: 1.22

SMILES: CC(C(=O)O)c1ccc(N2Cc3cccc(N)c3C2=O)cc1 (centres unmarked) [ALB-112062a]
- EC50 [1]: 329 nM
- maximal fold induction [2]: 1.41

SMILES: CC(C(=O)O)c1ccc(N2Cc3cc(-c4ccc(Cl)cc4)ccc3C2=O)cc1 (centres unmarked) [ALB-111890]
- EC50 [1]: 7740 nM
- maximal fold induction [2]: 1.16

SMILES: CC(C)OCc1ccc2c(c1)C(=O)N(c1ccc(C(C)C(=O)O)cc1)C2 (centres unmarked) [ALB-114741]
- maximal fold induction [2]: 1.67

SMILES: CC(C(=O)OC(C)(C)C)c1ccc(N2Cc3cc(Br)ccc3C2=O)cc1 (centres unmarked) [ALB-111853]
- EC50 [1]: 21400 nM
- maximal fold induction [2]: 1.1

SMILES: Cc1ccc(-c2ccc3c(c2)CN(c2ccc(C(C)C(=O)OC(C)(C)C)cc2)C3=O)cc1 (centres unmarked) [ALB-111887]
- maximal fold induction [2]: 1.04

SMILES: CC(C)c1ccc(N2Cc3ccc(CN(C)C)cc3C2=O)cc1 [ALB-116934]
- maximal fold induction [2]: 1.05

SMILES: COc1cc2c(cc1OC)C(=O)N(c1ccc(C(C)C)cc1)C2 [ALB-117672]
- EC50 [1]: 319 nM
- maximal fold induction [2]: 1.47

SMILES: CCCOc1ccc2c(c1)C(=O)N(c1ccc(C(C)C)cc1)C2 [ALB-116075]
- EC50 [1]: 188 nM
- maximal fold induction [2]: 1.26

SMILES: CCOc1cccc2c1C(=O)N(c1ccc(C(C)C(=O)O)cc1)C2 (centres unmarked) [ALB-113391]
- EC50 [1]: 15300 nM
- maximal fold induction [2]: 1.46

SMILES: CCOCc1ccc2c(c1)C(=O)N(c1ccc(C(C)C(=O)O)cc1)C2 (centres unmarked) [ALB-114742]
- EC50 [1]: 42 nM
- maximal fold induction [2]: 1.58

SMILES: CC(C(=O)O)c1ccc(N2Cc3cccc(Cl)c3C2=O)cc1 (centres unmarked) [ALB-111784]
- EC50 [1]: 1130 nM
- maximal fold induction [2]: 1.41

SMILES: CC(C(=O)OC(C)(C)C)c1ccc(N2Cc3c(cccc3-c3ccccc3)C2=O)cc1 (centres unmarked) [ALB-112187]
- maximal fold induction [2]: 1.07

SMILES: CC(C(=O)OC(C)(C)C)c1ccc(N2Cc3ccc(NC(=O)c4ccccc4)cc3C2=O)cc1 (centres unmarked) [ALB-111958]
- maximal fold induction [2]: 1.06

SMILES: CC(C)Cc1ccc2c(c1)C(=O)N(c1ccc(C(C)C)cc1)C2 [ALB-116245]
- EC50 [1]: 219 nM
- maximal fold induction [2]: 1.36

SMILES: CC(C(=O)OC(C)(C)C)c1ccc(N2Cc3ccccc3C2=O)cc1Br (centres unmarked) [ALB-111882]
- EC50 [1]: 2830 nM
- maximal fold induction [2]: 1.24

SMILES: Cc1ccc(-c2cccc3c2C(=O)N(c2ccc(C(C)C(=O)OC(C)(C)C)cc2)C3)cc1 (centres unmarked) [ALB-112151]
- maximal fold induction [2]: 1.11

SMILES: COCC(C)c1ccc(N2Cc3ccc(COC(C)C)cc3C2=O)cc1 (centres unmarked) [ALB-114847]
- maximal fold induction [2]: 1.23

SMILES: CC(C(=O)OC(C)(C)C)c1ccc(N2Cc3ccc(-c4ccc(Cl)cc4)cc3C2=O)cc1 (centres unmarked) [ALB-112443]
- maximal fold induction [2]: 1.07

SMILES: COc1ccc2c(c1)C(=O)N(c1ccc(C3CCCC3)cc1)C2 [ALB-115422]
- EC50 [1]: 399 nM
- maximal fold induction [2]: 1.27

SMILES: CC(C(=O)OC(C)(C)C)c1ccc(N2Cc3cc(-c4ccc(Cl)c(Cl)c4)ccc3C2=O)cc1 (centres unmarked) [ALB-111854]
- maximal fold induction [2]: 1.04

SMILES: CC(C)c1ccc(N2Cc3cccc(OC(F)F)c3C2=O)cc1 [ALB-118279]
- EC50 [1]: 220 nM
- maximal fold induction [3]: 1.55

SMILES: Cc1ccc2c(c1)CN(c1ccc(C(C)C(=O)O)cc1)C2=O (centres unmarked) [ALB-112556]
- EC50 [1]: 146 nM
- maximal fold induction [2]: 1.56

SMILES: CC(C(=O)O)c1ccc(N2Cc3ccccc3C2=O)cc1C#N (centres unmarked) [ALB-112437]
- maximal fold induction [2]: 1.09
